Assay results: patent US20230085307A1, “PYRIDAZINONE COMPOUND AND HERBICIDE” (NISSAN CHEMICAL CORPORATION, priority 2019, published 2023)

Key:
velvetleaf [1] = assay: Test Example 5: herbicidal effect by foliage application, plastic box (Table 20, symbol M); assay type: in vivo, velvetleaf (Abutilon theophrasti); conditions: foliage application, 320 g/ha, three weeks after application
Summary of the method: (§1)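 Post-emergence foliar test in sterilized diluvial soil. Compound applied as water-diluted emulsion at a predetermined rate to 14-day-old plants; evaluation at three weeks.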

blackgrass [2] = assay: Test Example 5: herbicidal effect by foliage application, plastic box (Table 20, symbol J); assay type: in vivo, blackgrass (Alopecurus myosuroides); conditions: foliage application, 320 g/ha, three weeks after application
Summary of the method: as §1

southern crabgrass [3] = assay: Test Example 4: herbicidal effect by soil treatment (Table 19, symbol F); assay type: in vivo, southern crabgrass (Digitaria ciliaris); conditions: amount of applied herbicide 320 g/ha
Summary of the method: (§2)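 Emulsion of test compound, water-diluted to predetermined amount, sprayed on soil after sowing (seed depth ~1.5 cm, sterilized diluvial soil). Greenhouse, 25–30° C. Effect graded at three weeks post-spray.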

persian speedwell [4] = assay: Test Example 5: herbicidal effect by foliage application, plastic box (Table 20, symbol R); assay type: in vivo, Persian speedwell (Veronica persica); conditions: foliage application, 320 g/ha, three weeks after application
Summary of the method: as §1

Italian ryegrass [5] = assay: Test Example 4: herbicidal effect by soil treatment (Table 19, symbol K); assay type: in vivo, Italian ryegrass (Lolium multiflorum); conditions: amount of applied herbicide 320 g/ha
Summary of the method: as §2

velvetleaf [6] = assay: Test Example 4: herbicidal effect by soil treatment (Table 19, symbol M); assay type: in vivo, velvetleaf (Abutilon theophrasti); conditions: amount of applied herbicide 320 g/ha
Summary of the method: as §2

Chinese sprangletop = assay: Test Example 3: herbicidal effect by foliage application, Wagner pot (Table 18, symbol D); assay type: in vivo, chinese sprangletop (Leptochloa chinensis); conditions: 320 g/ha
Summary of the method: (§3)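 Plants were sown in alluvial soil held under 0.1–0.5 cm standing water and grown 14 days in a greenhouse at 25–30 °C. An emulsifiable formulation, water-diluted to the set dose, was then sprayed onto the foliage, and effects were scored three weeks later using previously defined criteria.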

green foxtail [7] = assay: Test Example 4: herbicidal effect by soil treatment (Table 19, symbol G); assay type: in vivo, green foxtail (Setaria viridis); conditions: amount of applied herbicide 320 g/ha
Summary of the method: as §2

blackgrass [8] = assay: Test Example 4: herbicidal effect by soil treatment (Table 19, symbol J); assay type: in vivo, blackgrass (Alopecurus myosuroides); conditions: amount of applied herbicide 320 g/ha
Summary of the method: as §2

persian speedwell [9] = assay: Test Example 4: herbicidal effect by soil treatment (Table 19, symbol R); assay type: in vivo, Persian speedwell (Veronica persica); conditions: amount of applied herbicide 320 g/ha
Summary of the method: as §2

green foxtail [10] = assay: Test Example 5: herbicidal effect by foliage application, plastic box (Table 20, symbol G); assay type: in vivo, green foxtail (Setaria viridis); conditions: foliage application, 320 g/ha, three weeks after application
Summary of the method: as §1

Japanese bulrush = assay: Test Example 2: herbicidal activity, application during weed generation under submerged conditions (Table 17, symbol B); assay type: in vivo, Japanese bulrush (Schoenoplectus juncoides); conditions: AAH 320 g/ha; application during weed generation, submerged conditions
Summary of the method: (§4)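 In this pot test, flooded alluvial soil (water depth 4 cm) holds all three species sown as a mixture. Once seedlings have one to two leaves, the compound's emulsion, thinned with water to the intended dose, is poured on the water; grading follows after three weeks on the earlier criteria.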

rice flat sedge = assay: Test Example 3: herbicidal effect by foliage application, Wagner pot (Table 18, symbol E); assay type: in vivo, rice flat sedge (Cyperus iria); conditions: 320 g/ha
Summary of the method: as §3

wild oat [11] = assay: Test Example 4: herbicidal effect by soil treatment (Table 19, symbol I); assay type: in vivo, wild oat (Avena fatua); conditions: amount of applied herbicide 320 g/ha
Summary of the method: as §2

windgrass = assay: Test Example 5: herbicidal effect by foliage application, plastic box (Table 20, symbol L); assay type: in vivo, windgrass (Apera spica-venti); conditions: foliage application, 320 g/ha, three weeks after application
Summary of the method: as §1

false cleavers [12] = assay: Test Example 4: herbicidal effect by soil treatment (Table 19, symbol Q); assay type: in vivo, false cleavers (Galium spurium); conditions: amount of applied herbicide 320 g/ha
Summary of the method: as §2

chickweed [13] = assay: Test Example 5: herbicidal effect by foliage application, plastic box (Table 20, symbol P); assay type: in vivo, common chickweed (Stellaria media); conditions: foliage application, 320 g/ha, three weeks after application
Summary of the method: as §1

chickweed [14] = assay: Test Example 4: herbicidal effect by soil treatment (Table 19, symbol P); assay type: in vivo, common chickweed (Stellaria media); conditions: amount of applied herbicide 320 g/ha
Summary of the method: as §2

southern crabgrass [15] = assay: Test Example 5: herbicidal effect by foliage application, plastic box (Table 20, symbol F); assay type: in vivo, southern crabgrass (Digitaria ciliaris); conditions: foliage application, 320 g/ha, three weeks after application
Summary of the method: as §1

lambsquarters = assay: Test Example 5: herbicidal effect by foliage application, plastic box (Table 20, symbol O); assay type: in vivo, lambsquarters (Chenopodium album); conditions: foliage application, 320 g/ha, three weeks after application
Summary of the method: as §1

late watergrass = assay: Test Example 2: herbicidal activity, application during weed generation under submerged conditions (Table 17, symbol A); assay type: in vivo, late watergrass (Echinochloa oryzicola); conditions: AAH 320 g/ha; application during weed generation, submerged conditions
Summary of the method: as §4

false cleavers [16] = assay: Test Example 5: herbicidal effect by foliage application, plastic box (Table 20, symbol Q); assay type: in vivo, false cleavers (Galium spurium); conditions: foliage application, 320 g/ha, three weeks after application
Summary of the method: as §1

wild oat [17] = assay: Test Example 5: herbicidal effect by foliage application, plastic box (Table 20, symbol I); assay type: in vivo, wild oat (Avena fatua); conditions: foliage application, 320 g/ha, three weeks after application
Summary of the method: as §1

barnyard grass [18] = assay: Test Example 4: herbicidal effect by soil treatment (Table 19, symbol H); assay type: in vivo, barnyard grass (Echinochloa crus-galli); conditions: amount of applied herbicide 320 g/ha
Summary of the method: as §2

redroot pigweed [19] = assay: Test Example 4: herbicidal effect by soil treatment (Table 19, symbol N); assay type: in vivo, redroot pigweed (Amaranthus retroflexus); conditions: amount of applied herbicide 320 g/ha
Summary of the method: as §2

oval-leafed pondweed = assay: Test Example 2: herbicidal activity, application during weed generation under submerged conditions (Table 17, symbol C); assay type: in vivo, oval-leafed pondweed (Monochoria vaginalis); conditions: AAH 320 g/ha; application during weed generation, submerged conditions
Summary of the method: as §4

barnyard grass [20] = assay: Test Example 5: herbicidal effect by foliage application, plastic box (Table 20, symbol H); assay type: in vivo, barnyard grass (Echinochloa crus-galli); conditions: foliage application, 320 g/ha, three weeks after application
Summary of the method: as §1

barnyard grass [21] = assay: Test Example 3: herbicidal effect by foliage application, Wagner pot (Table 18, symbol H); assay type: in vivo, barnyard grass (Echinochloa crus-galli); conditions: 320 g/ha
Summary of the method: as §3

Italian ryegrass [22] = assay: Test Example 5: herbicidal effect by foliage application, plastic box (Table 20, symbol K); assay type: in vivo, Italian ryegrass (Lolium multiflorum); conditions: foliage application, 320 g/ha, three weeks after application
Summary of the method: as §1

redroot pigweed [23] = assay: Test Example 5: herbicidal effect by foliage application, plastic box (Table 20, symbol N); assay type: in vivo, redroot pigweed (Amaranthus retroflexus); conditions: foliage application, 320 g/ha, three weeks after application
Summary of the method: as §1

SMILES: COc1ccc(-c2sc3ccccc3c2-c2c(O)c(C)nn(C)c2=O)cc1C [1-068]
- herbicidal effect grade, M: velvetleaf (velvetleaf [1]): 3 (Herbicidal rate of 40% or more and less than 70%)
- herbicidal effect grade, J: blackgrass (blackgrass [2]): 0 (Herbicidal rate of 5% or less (almost no effect))
- herbicidal effect rating, F: southern crabgrass (southern crabgrass [3]): 0 (Herbicidal rate of 5% or less (almost no effect))
- herbicidal effect grade, R: persian speedwell (persian speedwell [4]): 5 (Herbicidal rate of 90% or more (almost completely withered))
- herbicidal effect rating, K: Italian ryegrass (Italian ryegrass [5]): 2 (Herbicidal rate of 20% or more and less than 40%)
- herbicidal effect rating, M: velvetleaf (velvetleaf [6]): 0 (Herbicidal rate of 5% or less (almost no effect))
- herbicidal effect on D (Chinese sprangletop), rating 0-5 (Chinese sprangletop): 1 (Herbicidal rate of 5% or more and less than 20%)
- herbicidal effect rating, G: green foxtail (green foxtail [7]): 4 (Herbicidal rate of 70% or more and less than 90%)
- herbicidal effect rating, J: blackgrass (blackgrass [8]): 0 (Herbicidal rate of 5% or less (almost no effect))
- herbicidal effect rating, R: persian speedwell (persian speedwell [9]): 4 (Herbicidal rate of 70% or more and less than 90%)
- herbicidal effect grade, G: green foxtail (green foxtail [10]): 3 (Herbicidal rate of 40% or more and less than 70%)
- herbicidal effect rating, B: Japanese bulrush (Japanese bulrush): 1 (Herbicidal rate of 5% or more and less than 20%)
- herbicidal effect on E (rice flat sedge), rating 0-5 (rice flat sedge): 5 (Herbicidal rate of 90% or more (almost completely withered))
- herbicidal effect rating, I: wild oat (wild oat [11]): 0 (Herbicidal rate of 5% or less (almost no effect))
- herbicidal effect grade, L: windgrass (windgrass): 0 (Herbicidal rate of 5% or less (almost no effect))
- herbicidal effect rating, Q: false cleavers (false cleavers [12]): 0 (Herbicidal rate of 5% or less (almost no effect))
- herbicidal effect grade, P: chickweed (chickweed [13]): 5 (Herbicidal rate of 90% or more (almost completely withered))
- herbicidal effect rating, P: chickweed (chickweed [14]): 2 (Herbicidal rate of 20% or more and less than 40%)
- herbicidal effect grade, F: southern crabgrass (southern crabgrass [15]): 3 (Herbicidal rate of 40% or more and less than 70%)
- herbicidal effect grade, O: lambsquarters (lambsquarters): 3 (Herbicidal rate of 40% or more and less than 70%)
- herbicidal effect rating, A: late watergrass (late watergrass): 0 (Herbicidal rate of 5% or less (almost no effect))
- herbicidal effect grade, Q: false cleavers (false cleavers [16]): 0 (Herbicidal rate of 5% or less (almost no effect))
- herbicidal effect grade, I: wild oat (wild oat [17]): 1 (Herbicidal rate of 5% or more and less than 20%)
- herbicidal effect rating, H: barnyard grass (barnyard grass [18]): 4 (Herbicidal rate of 70% or more and less than 90%)
- herbicidal effect rating, N: redroot pigweed (redroot pigweed [19]): 0 (Herbicidal rate of 5% or less (almost no effect))
- herbicidal effect rating, C: oval-leafed pondweed (oval-leafed pondweed): 3 (Herbicidal rate of 40% or more and less than 70%)
- herbicidal effect grade, H: barnyard grass (barnyard grass [20]): 3 (Herbicidal rate of 40% or more and less than 70%)
- herbicidal effect on H (barnyard grass), rating 0-5 (barnyard grass [21]): 3 (Herbicidal rate of 40% or more and less than 70%)
- herbicidal effect grade, K: Italian ryegrass (Italian ryegrass [22]): 3 (Herbicidal rate of 40% or more and less than 70%)
- herbicidal effect grade, N: redroot pigweed (redroot pigweed [23]): 0 (Herbicidal rate of 5% or less (almost no effect))
